Source: patent publication US20100010053A1, “COMPOUNDS” (priority 2008, published 2010)

Molecular target: T1, human S1P1 receptor (EDG1) (Homo sapiens, UniProt P21453)
T1 construct: TEV protease site + Gal4-VP16 transcription factor (only in the Tango assay cells; not described for the GTPγS membranes); expressed in transfected cells; host or cells: rat hepatoma cells (membranes, GTPγS assay) or Tango EDG1-bla U2OS cells (Tango assay)
Assay: S1P1 GTPγS assay or S1P1 Tango assay (at least one of the above assays)
Assay type: cell-based
Conditions: read-out: pEC50 in at least one of the above assays (converted)
Procedure: For membrane preparations all steps were performed at 4° C. Rat hepatoma cells stably expressing the human S1P1 receptor or Rat Basophilic Leukaemia cells (RBL) stably expressing human S1P3 receptor were grown to 80% confluency before being harvested into 10 ml Phospho-Buffered Saline (PBS) and centrifuged at 1200 rpm for 5 minutes. After removal of the supernatant, the pellet was re-suspended and cells were homogenised within a glass Waring blender for 2 bursts of 15 secs in 200 mls of buffer (50 mM HEPES, 1 mM leupeptin, 25 μg/ml bacitracin, 1 mM EDTA, 1 mM PMSF, 2 μM pepstatin A). The blender was plunged into ice for 5 mins after the first burst and 10-40 mins after the final burst to allow foam to dissipate. The material was then spun at 500 g for 20 mins and the supernatant spun for 36 mins at 48,000 g. The pellet was resuspended in the same buffer as above but without PMSF and pepstatin A. The material was then forced through a 0.6 mm needle, made up to the required volume, (usually ×4 the volume of the original cell pellet), aliquoted and stored frozen at −80° C. S1P1 GTPγS assay Human S1P1 rat hepatoma membranes (1.5 μg/well) were adhered to a wheatgerm agglutinin (WGA)-coated scintillation proximity assay (SPA) beads (0.125 mg/well) in assay buffer (HEPES 20 mM, MgCl2 10 mM, NaCl 100 mM and pH adjusted to 7.4 using KOH 5M, GDP 10 μM FAC (final assay concentration) and saponin 90 μg/ml FAC was also added).
After 30 minutes pre-coupling on ice the bead and membrane suspension was dispensed into a white Greiner polypropylene LV384-well plate (5 μl/well), containing 0.1 μl of the compound. 5 μl/well [^35S]-GTPγS (0.5 nM final radioligand conc) made up in assay buffer was then added to agonist plates. The final assay cocktail (10.1 μl) was then centrifuged at 1000 rpm for 5 minutes then read immediately on a Viewlux reader.
All test compounds were dissolved in DMSO at a concentration of 10 mM and were prepared in 100% DMSO using a 1 in 4 dilution step to provide 11 point dose response curves. The dilutions were transferred to the assay plates ensuring that the DMSO concentration was constant across the plate for all assays.
All data was normalized to the mean of 16 high and 16 low control wells on each plate. A four parameter curve fit was then applied.
Recombinant EDG1-bla/U2OS cells (contain the human Endothelial Differentiation Gene 1 (EDG1) linked to a TEV protease site and a Gal4-VP16 transcription factor stably integrated into the Tango GPCR-bla U2OS parental cell line) were suspended in assay medium (Invitrogen Freestyle Expression Medium) at a density of 312, 500 cells/ml. Add 100 μl/well of the assay medium to the cell-free control wells (column 12) and 100 μl/well of the cell suspension to the test compound wells (row 2-8, column 1-10), the unstimulated control wells (DMSO) (column 11), and stimulated control wells (S1P) (row 1, column 1-10) in a Corning black-well, clear bottom 96-well plate. Cells were incubated at 37° C., 5% CO2 for 44-48 h. Add 25 μl of 5× stock solution of test compounds in assay medium with 0.5% DMSO to the test compound wells, 25 μl of 5× stock solution of agonist (S1P) in assay medium with 0.5% DMSO to the stimulated compound wells, and 25 μl of 5× stock solution of 0.5% DMSO in assay medium to the unstimulated control and cell-free control wells.
After incubation at 37° C., 5% CO2 for 5 h, 25 μl of 6× substrate mixture (6 μl Solution A (1 mg LiveBLAzer™-FRET B/G substrate (CCF4-AM) in 912 μl DMSO) plus 60 μl Solution B plus 934 μl Solution C) was added to each well and incubate at room temperature for 2 h in dark. The plate was finally read on EnVision for two emission channels (460 nm and 530 nm).
All test compounds were dissolved in DMSO at a concentration of 10 mM and were prepared in 100% DMSO using a 1 in 5 dilution step to provide 10 point dose response curves. […]

T1 sequence (P21453 whole entry, the tested form may be a part): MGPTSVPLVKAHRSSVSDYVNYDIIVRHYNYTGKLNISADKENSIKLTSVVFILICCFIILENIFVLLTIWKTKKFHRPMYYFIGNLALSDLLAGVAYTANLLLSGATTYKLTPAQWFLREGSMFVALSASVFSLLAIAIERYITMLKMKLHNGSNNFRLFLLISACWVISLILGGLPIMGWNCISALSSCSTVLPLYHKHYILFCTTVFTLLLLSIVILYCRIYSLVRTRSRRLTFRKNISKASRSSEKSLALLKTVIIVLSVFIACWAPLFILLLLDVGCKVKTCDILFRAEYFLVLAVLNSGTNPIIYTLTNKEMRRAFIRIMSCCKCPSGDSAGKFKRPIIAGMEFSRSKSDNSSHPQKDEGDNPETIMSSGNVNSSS

EC50 [nM]	SMILES
< 10	CC(C)Oc1ccc(-c2nc(-c3cccc4c(CCC(=O)O)c[nH]c34)no2)cc1Cl [Example 1, 3-[7-(5-{3-chloro-4-[(1-methylethyl)oxy]phenyl}-1,2,4-oxadiazol-3-yl)-1H-indol-3-yl]propanoic acid]
< 10	CC(C)Oc1ccc(-c2nc(-c3cccc4c(CCC(=O)O)cn(C)c34)no2)cc1Cl [Example 2, 3-[7-(5-{3-Chloro-4-[(1-methylethyl)oxy]phenyl}-1,2,4-oxadiazol-3-yl)-1-methyl-1H-indol-3-yl]propanoic acid]
< 1	CC(C)Oc1ccc(-c2nc(-c3cccc4c(CCC(=O)O)c[nH]c34)no2)cc1C#N [Example 3, 3-[7-(5-{3-Cyano-4-[(1-methylethyl)oxy]phenyl}-1,2,4-oxadiazol-3-yl)-1H-indol-3-yl]propanoic acid]
< 1	CC(C)Oc1ccc(-c2nc(-c3ccc4c(CCC(=O)O)c[nH]c4c3)no2)cc1C#N [Example 7, 3-[6-(5-{3-Cyano-4-[(1-methylethyl)oxy]phenyl}-1,2,4-oxadiazol-3-yl)-1H-indol-3-yl]propanoic acid]
≥ 1000	CC(C)Oc1ccc(-c2nc(-c3ccc4[nH]c(C(=O)O)cc4c3)no2)cc1Cl [Example 8, Sodium 5-(5-{3-chloro-4-[(1-methylethyl)oxy]phenyl}-1,2,4-oxadiazol-3-yl)-1H-indole-2-carboxylate]
< 10	CC(C)Oc1ccc(-c2nc(-c3ccc(F)c4c(CCC(=O)O)c[nH]c34)no2)cc1Cl [Example 19, 3-[7-(5-{3-Chloro-4-[(1-methylethyl)oxy]phenyl}-1,2,4-oxadiazol-3-yl)-4-fluoro-1H-indol-3-yl]propanoic acid]
< 10	CC(C)Oc1ccc(-c2nc(-c3ccc(F)c4c(CCC(=O)O)cn(C)c34)no2)cc1Cl [Example 20, 3-[7-(5-{3-Chloro-4-[(1-methylethyl)oxy]phenyl}-1,2,4-oxadiazol-3-yl)-4-fluoro-1-methyl-1H-indol-3-yl]propanoic acid]
< 10	CC(C)Oc1ccc(-c2nc(-c3ccc(F)c4c(CCC(=O)O)c[nH]c34)no2)cc1C#N [Example 21, 3-[7-(5-{3-Cyano-4-[(1-methylethyl)oxy]phenyl}-1,2,4-oxadiazol-3-yl)-4-fluoro-1H-indol-3-yl]propanoic acid]
≥ 1000	CCCCn1cc(CCC(=O)O)c2cccc(-c3noc(-c4ccc(OC(C)C)c(Cl)c4)n3)c21 [Example 29, 3-[1-butyl-7-(5-{3-chloro-4-[(1-methylethyl)oxy]phenyl}-1,2,4-oxadiazol-3-yl)-1H-indol-3-yl]propanoic acid]
≥ 1000	CC(C)Cn1cc(CCC(=O)O)c2cccc(-c3noc(-c4ccc(OC(C)C)c(Cl)c4)n3)c21 [Example 30, 3-[7-(5-{3-chloro-4-[(1-methylethyl)oxy]phenyl}-1,2,4-oxadiazol-3-yl)-1-(2-methylpropyl)-1H-indol-3-yl]propanoic acid]
< 10	CC(C)Oc1ccc(-c2nc(-c3cccc4c(C[C@@H](C)C(=O)O)cn(C)c34)no2)cc1Cl [Example 36, (2R)-3-[7-(5-{3-chloro-4-[(1-methylethyl)oxy]phenyl}-1,2,4-oxadiazol-3-yl)-1-methyl-1H-indol-3-yl]-2-methylpropanoic acid]
≥ 1000	COc1ccc(-c2nc(-c3cccc4c(CCC(=O)O)cn(C)c34)no2)cc1OC [Example 44, 3-(7-{5-[3,4-bis(methyloxy)phenyl]-1,2,4-oxadiazol-3-yl}-1-methyl-1H-indol-3-yl)propanoic acid]
< 10	CC(C)Oc1ccc(-c2nc(-c3cccc4c(CNCCC(=O)O)c[nH]c34)no2)cc1Cl [Example 46, N-{[7-(5-{3-chloro-4-[(1-methylethyl)oxy]phenyl}-1,2,4-oxadiazol-3-yl)-1H-indol-3-yl]methyl}-β-alanine]
< 1	CC(C)Oc1ccc(-c2nc(-c3cccc4c(CNCC(=O)O)c[nH]c34)no2)cc1Cl [Example 47, N-{[7-(5-{3-chloro-4-[(1-methylethyl)oxy]phenyl}-1,2,4-oxadiazol-3-yl)-1H-indol-3-yl]methyl}glycine]
